Test results reported in ChEMBL document CHEMBL1201862, “PubChem BioAssay data set” (2004).
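All cell lines were grown in 96-well plates and treated with compound for 48 hours. GI50 = concentration required for 50% inhibition of growth.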 Calls of active or inactive are those of the source. Cut-off read from the data, not from the text of the source: active = GI50 up to about 1.1 µM and inactive = higher.

Legend:
Assay in all cases: DTP human tumour cell line panel, 48 h
Malme-3M = system: Malme-3M
SK-MEL-5 = system: SK-MEL-5
OVCAR-4 = system: OVCAR-4
OVCAR-8 = system: OVCAR-8
HCT-15 = system: HCT-15
HCT-116 = system: HCT-116
U-251 = system: U-251
NCI-H522 = system: NCI-H522
NCI-H23 = system: NCI-H23
CCRF-CEM = system: CCRF-CEM
SK-MEL-2 = system: SK-MEL-2
HOP-92 = system: HOP-92
SF-539 = system: SF-539
CAKI-1 = system: CAKI-1
A498 = system: A498
SK-OV-3 = system: SK-OV-3
SNB-75 = system: SNB-75

Row | SMILES | GI50 (Malme-3M) | GI50 (SK-MEL-5) | GI50 (OVCAR-4) | GI50 (OVCAR-8) | GI50 (HCT-15) [µM] | GI50 (HCT-116) | GI50 (U-251) | GI50 (NCI-H522) | GI50 (NCI-H23) | GI50 (CCRF-CEM) | GI50 (SK-MEL-2) | GI50 (HOP-92) | GI50 (SF-539) | GI50 (CAKI-1) | GI50 (A498) | GI50 (SK-OV-3) | GI50 (SNB-75)
1 | N#Cc1cccc(N2C(=O)c3c(c(-c4ccccc4)c(-c4ccc(Sc5ccc(-c6c(-c7ccccc7)c7c(c(-c8ccccc8)c6-c6ccccc6)C(=O)N(c6cccc(C#N)c6)C7=O)cc5)cc4)c(-c4ccccc4)c3-c3ccccc3)C2=O)c1 | > 100 µM (inactive) | 77.6 µM (inactive) | > 100 µM (inactive) | 45.9 µM (inactive) | 43.8 | 65.2 µM (inactive) | 21.2 µM (inactive) | > 100 µM (inactive) | > 100 µM (inactive) | > 100 µM (inactive) | > 100 µM (inactive) | 3.92 µM (inactive) | 65.2 µM (inactive) | – | – | – | –
2 | NC1=NC(Cn2nc(-c3ccccc3)c3ccccc3c2=O)=NNC(=O)N1 | > 100 µM (inactive) | > 100 µM (inactive) | > 100 µM (inactive) | > 100 µM (inactive) | > 100 | > 100 µM (inactive) | > 100 µM (inactive) | > 100 µM (inactive) | > 100 µM (inactive) | > 100 µM (inactive) | > 100 µM (inactive) | > 100 µM (inactive) | > 100 µM (inactive) | > 100 µM (inactive) | > 100 µM (inactive) | > 100 µM (inactive) | > 100 µM (inactive)
3 | c1csc(C[N+]23CN4CN(CN(C4)C2)C3)c1 | 18.3 µM (inactive) | 19.3 µM (inactive) | 24.3 µM (inactive) | 28.2 µM (inactive) | 28.2 | > 100 µM (inactive) | 22.3 µM (inactive) | > 100 µM (inactive) | > 100 µM (inactive) | 18.3 µM (inactive) | 19.7 µM (inactive) | 22.7 µM (inactive) | > 100 µM (inactive) | 25.8 µM (inactive) | – | – | > 100 µM (inactive)
4 | C[S+]([O-])c1ccc(COP(N)(=O)N(CCCl)CCCl)cc1 (stereo not given) | > 100 µM (inactive) | > 100 µM (inactive) | > 100 µM (inactive) | > 100 µM (inactive) | – | > 100 µM (inactive) | > 100 µM (inactive) | > 100 µM (inactive) | > 100 µM (inactive) | > 100 µM (inactive) | > 100 µM (inactive) | > 100 µM (inactive) | > 100 µM (inactive) | > 100 µM (inactive) | > 100 µM (inactive) | > 100 µM (inactive) | > 100 µM (inactive)
5 | COCC12CC(CC1=O)C1C2ON2c3ccccc3C(=O)C12c1ccccc1 (stereo not given) | > 100 µM (inactive) | > 100 µM (inactive) | 4.9 µM (inactive) | > 100 µM (inactive) | > 100 | > 100 µM (inactive) | > 100 µM (inactive) | > 100 µM (inactive) | > 100 µM (inactive) | 61.2 µM (inactive) | – | > 100 µM (inactive) | > 100 µM (inactive) | – | > 100 µM (inactive) | > 100 µM (inactive) | > 100 µM (inactive)
6 | Cc1c(Cl)cccc1NC(=O)C(=O)C1C(=O)NC(=O)NC1=O | > 100 µM (inactive) | > 100 µM (inactive) | > 100 µM (inactive) | > 100 µM (inactive) | > 100 | > 100 µM (inactive) | > 100 µM (inactive) | > 100 µM (inactive) | > 100 µM (inactive) | > 100 µM (inactive) | > 100 µM (inactive) | > 100 µM (inactive) | > 100 µM (inactive) | > 100 µM (inactive) | > 100 µM (inactive) | > 100 µM (inactive) | > 100 µM (inactive)
7 | COCCNC(=O)C1C(=O)N(CCOC)C(=O)/C1=N/N (stereo not given) | > 100 µM (inactive) | – | – | – | > 100 | > 100 µM (inactive) | > 100 µM (inactive) | > 100 µM (inactive) | > 100 µM (inactive) | > 100 µM (inactive) | > 100 µM (inactive) | > 100 µM (inactive) | > 100 µM (inactive) | > 100 µM (inactive) | – | > 100 µM (inactive) | > 100 µM (inactive)
8 | CSc1ccc(NC(=O)C2c3[nH]c4ccccc4c3C3CCC(C(C)(C)C)CC3C2C(=O)O)cc1 (stereo not given) | 20.9 µM (inactive) | 21.1 µM (inactive) | 18.4 µM (inactive) | 14.8 µM (inactive) | 29.2 | 14.4 µM (inactive) | 15 µM (inactive) | 15 µM (inactive) | 20.1 µM (inactive) | 10.7 µM (inactive) | – | 23.2 µM (inactive) | 19.7 µM (inactive) | – | 17.9 µM (inactive) | 16.5 µM (inactive) | 17.2 µM (inactive)
9 | O=C1C[C@@H]2CCCC[C@@H]2C12SCCS2 | > 100 µM (inactive) | 92.5 µM (inactive) | > 100 µM (inactive) | > 100 µM (inactive) | > 100 | > 100 µM (inactive) | > 100 µM (inactive) | 69 µM (inactive) | 95.1 µM (inactive) | > 100 µM (inactive) | > 100 µM (inactive) | – | > 100 µM (inactive) | > 100 µM (inactive) | > 100 µM (inactive) | > 100 µM (inactive) | 61.9 µM (inactive)
10 | NC(=O)n1ncc(Cl)c(Cl)c1=O | > 100 µM (inactive) | > 100 µM (inactive) | > 100 µM (inactive) | > 100 µM (inactive) | > 100 | > 100 µM (inactive) | > 100 µM (inactive) | > 100 µM (inactive) | > 100 µM (inactive) | > 100 µM (inactive) | > 100 µM (inactive) | > 100 µM (inactive) | > 100 µM (inactive) | > 100 µM (inactive) | > 100 µM (inactive) | > 100 µM (inactive) | > 100 µM (inactive)
11 | CC(C)=CCC/C(=C/CC/C(C)=C/CCc1ccoc1)C(=O)O | > 100 µM (inactive) | > 100 µM (inactive) | > 100 µM (inactive) | > 100 µM (inactive) | > 100 | > 100 µM (inactive) | > 100 µM (inactive) | > 100 µM (inactive) | > 100 µM (inactive) | > 100 µM (inactive) | > 100 µM (inactive) | > 100 µM (inactive) | > 100 µM (inactive) | – | > 100 µM (inactive) | > 100 µM (inactive) | > 100 µM (inactive)
12 | BrC12c3ccccc3Sc3ccccc3C1(Br)c1ccccc12 (stereo not given) | 30.7 µM (inactive) | 16.2 µM (inactive) | 33.1 µM (inactive) | 32.1 µM (inactive) | 17.8 | 22 µM (inactive) | 17.7 µM (inactive) | 17.5 µM (inactive) | – | 4.93 µM (inactive) | 15.8 µM (inactive) | 19.8 µM (inactive) | 18.3 µM (inactive) | 26.1 µM (inactive) | 22.9 µM (inactive) | 42.1 µM (inactive) | 27.3 µM (inactive)
13 | CS/C(C)=N/OC(=O)NCCCCNc1ccc(N=[N+]=[N-])cc1 | 32 µM (inactive) | 16.7 µM (inactive) | 42.9 µM (inactive) | 47.9 µM (inactive) | 36.9 | 34.2 µM (inactive) | 30.6 µM (inactive) | 4.76 µM (inactive) | 34.9 µM (inactive) | 24.2 µM (inactive) | – | 55.3 µM (inactive) | 50.5 µM (inactive) | 36.5 µM (inactive) | 47 µM (inactive) | 37.9 µM (inactive) | 52.4 µM (inactive)
14 | CN1CCC(CN2c3ccccc3Sc3ccccc32)CC1 | – | 7.19 µM (inactive) | 16.3 µM (inactive) | 17.5 µM (inactive) | 18.5 | 12.6 µM (inactive) | 15.7 µM (inactive) | 14.9 µM (inactive) | 16.4 µM (inactive) | 16.3 µM (inactive) | 17.1 µM (inactive) | 5.69 µM (inactive) | 14.9 µM (inactive) | 4.93 µM (inactive) | 15.6 µM (inactive) | 16.5 µM (inactive) | –
15 | Cc1cc(O)nc(CNC(=O)c2cccc3ccccc23)n1 | > 100 µM (inactive) | > 100 µM (inactive) | > 100 µM (inactive) | > 100 µM (inactive) | > 100 | > 100 µM (inactive) | > 100 µM (inactive) | > 100 µM (inactive) | > 100 µM (inactive) | > 100 µM (inactive) | – | > 100 µM (inactive) | > 100 µM (inactive) | > 100 µM (inactive) | > 100 µM (inactive) | > 100 µM (inactive) | > 100 µM (inactive)
16 | COC1C2C[C@@H](O)CCC2C(C(=O)OCCl)C[C@H]1O (stereo not given in full) | > 100 µM (inactive) | > 100 µM (inactive) | > 100 µM (inactive) | > 100 µM (inactive) | > 100 | > 100 µM (inactive) | > 100 µM (inactive) | > 100 µM (inactive) | – | > 100 µM (inactive) | > 100 µM (inactive) | – | > 100 µM (inactive) | > 100 µM (inactive) | > 100 µM (inactive) | > 100 µM (inactive) | > 100 µM (inactive)
17 | CCOC(=O)N1CCC(=O)C[C@@H]1C/C=C/P1(=O)O[C@H](c2ccccc2)C(C)N1C(C)C (stereo not given in full) | > 100 µM (inactive) | > 100 µM (inactive) | > 100 µM (inactive) | > 100 µM (inactive) | > 100 | > 100 µM (inactive) | > 100 µM (inactive) | > 100 µM (inactive) | > 100 µM (inactive) | – | > 100 µM (inactive) | > 100 µM (inactive) | > 100 µM (inactive) | > 100 µM (inactive) | – | > 100 µM (inactive) | > 100 µM (inactive)
18 | c1ccc2c(CNCCCCCCNCc3cccc4ccccc34)cccc2c1 | 1.95 µM (inactive) | 7.24 µM (inactive) | 14.7 µM (inactive) | 14.5 µM (inactive) | 6.75 | 1.99 µM (inactive) | 10.7 µM (inactive) | 2.32 µM (inactive) | 16.4 µM (inactive) | 3.06 µM (inactive) | 1.65 µM (inactive) | 6.14 µM (inactive) | 1.82 µM (inactive) | 7.38 µM (inactive) | 18.7 µM (inactive) | 17.5 µM (inactive) | 2.31 µM (inactive)
